Reference: patent US4661602A, “Substituted alkyl imidazole derivatives” (G. D. Searle & Co., priority 1985, dated 1987)
In brackets after ≈: the same amount, converted by molar mass. Structures can show the parent of a compound that is named as a salt. Where two headings read alike, the source gives them in different places.

What was measured:
[1] = system: Peptococc. magnus ATCC 29328; assay: Anti-anaerobic activity, additional strains; format: cell-based
P. prevotti ATCC 9321 = assay: Anti-anaerobic activity, additional strains; format: cell-based
B. Fragilis NCTC 9344 = assay: Anti-anaerobic activity, strain C (microtitre plate MIC/MBC); format: cell-based; details: Bacteroides fragilis, NCTC9344, 48 h
B. Fragilis WS-1 = assay: Anti-anaerobic activity, strain E (microtitre plate MIC/MBC); format: cell-based; details: Bacteroides fragilis, 48 h
[2] = system: Peptostrepto anaerobicus ATCC 27337; assay: Anti-anaerobic activity, additional strains; format: cell-based
P. acnes NCTC 7337 = assay: Anti-anaerobic activity, additional strains; format: cell-based, Propionibacterium acnes; details: Cutibacterium acnes, NCTC7337
[3] = system: Clostridium perfringens NCTC 523; assay: microbe, parasite or virus in culture; format: cell-based; details: NCTC523
B. Fragilis NCTC 9343 = assay: Anti-anaerobic activity, strain B (microtitre plate MIC/MBC); format: cell-based, Bacteroides fragilis; details: for MIC: 48 hours, 37° C., anaerobic chamber, lowest concentration with no detectable growth
Campl. fetus ATCC 29428 = assay: Anti-anaerobic activity, additional strains; format: cell-based; details: Campylobacter fetus, ATCC29428
[4] = system: Propionibacterium acnes NCTC 737; assay: Anti-anaerobic activity, additional strains; format: cell-based; details: Cutibacterium acnes, NCTC737
Trichomonas vaginalis = assay: MIC against Trichomonas vaginalis (Diamonds Medium); format: cell-based
B. Fragilis NCTC 10581 = assay: Anti-anaerobic activity, strain A (microtitre plate MIC/MBC); format: cell-based, Bacteroides fragilis
B. Fragilis ATCC 11295 = assay: Anti-anaerobic activity, strain D (microtitre plate MIC/MBC); format: cell-based; details: Bacteroides fragilis, ATCC11295, 48 h
[5] = system: Cl. perfringens NCTC 8237; assay: microbe, parasite or virus in culture; format: cell-based; details: Clostridium perfringens, NCTC8237
[6] = system: Fuso. necrophorum ATCC 11295; assay: Anti-anaerobic activity, additional strains; format: cell-based; details: Fusobacterium necrophorum, ATCC11295
[7] = Peptostrepto anaerobicus ATCC 27337
[8] = Bacteroides fragilis, NCTC10581, 48 h

With `Clc1ccc(N2CCN=C2C(Cn2ccnc2)c2ccccc2)c(Cl)c1` (centres unmarked) [Example 3, 1-(2,4-Dichlorophenyl)-4,5-dihydro-2-[2-(imidazol-1-yl)-1-phenylethyl]imidazole hydrochloride] the MIC ([1]; Peptococc. magnus ATCC 29328) was 1.5 µg/mL, the MBC ([1]; Peptococc. magnus ATCC 29328, read-out: MBC) was 6.2 µg/mL and the MIC (P. prevotti ATCC 9321) was 3.1 µg/mL. For the same molecule, the MBC (P. prevotti ATCC 9321; P. prevotti ATCC 9321) was 12.5 µg/mL, the MBC (B. Fragilis NCTC 9344; strain C, less than 5 colonies (99.9% reduction in viable count) after 48 hours, read-out: MBC) was 0.8 µg/mL and the MIC (B. Fragilis WS-1; strain E, 48 hours, 37° C., anaerobic chamber, lowest concentration with no detectable growth, read-out: MIC) was 1.5 µg/mL. It also gave an MBC [2] of 3.1 µg/mL, an MIC [2, 7] of 1.5 µg/mL and an MBC (P. acnes NCTC 7337; P. acnes NCTC 7337, read-out: MBC) of 0.8 µg/mL. The MIC (P. acnes NCTC 7337; P. acnes NCTC 7337, read-out: MIC) was 0.8 µg/mL, the MBC [3] was 3.1 µg/mL and the MIC [3] was 0.8 µg/mL. The MIC (B. Fragilis NCTC 9343; Bacteroides fragilis, NCTC9343, 48 h, strain B, read-out: MIC) was 1.5 µg/mL, the MBC (B. Fragilis NCTC 9343; Bacteroides fragilis, NCTC9343, 48 h, strain B, less than 5 colonies (99.9% reduction in viable count) after 48 hours, read-out: MBC) was 1.5 µg/mL and the MBC (Campl. fetus ATCC 29428; Campl. fetus ATCC 29428, read-out: MBC) was 6.2 µg/mL. The MIC (Campl. fetus ATCC 29428; Campl. fetus ATCC 29428, read-out: MIC) was 1.5 µg/mL, the MBC [4] was 3.1 µg/mL and the MIC ([4]; Propionibacterium acnes NCTC 737, read-out: MIC) was 0.8 µg/mL. The MIC (Trichomonas vaginalis) was 3.1 µg/mL, the MBC (B. Fragilis NCTC 10581; Bacteroides fragilis, NCTC10581, 48 h, strain A, less than 5 colonies (99.9% reduction in viable count) after 48 hours, read-out: MBC) was 0.8 µg/mL and the MBC (B. Fragilis ATCC 11295; strain D, less than 5 colonies (99.9% reduction in viable count) after 48 hours, read-out: MBC) was 0.8 µg/mL. For the same molecule, the MBC [5] was 3.1 µg/mL, the MIC [5] was 3.1 µg/mL and the MIC [6] was 3.1 µg/mL. It also gave an MBC ([6]; Fuso. necrophorum ATCC 11295, read-out: MBC) of 6.2 µg/mL.
With `Cc1ncc([N+](=O)[O-])n1CCO` [Metronidazole, reference compound] the MBC [1] was 10 µg/mL (≈ 58.4 µM), the MIC ([1]; Peptococc. magnus ATCC 29328) was 0.6 µg/mL (≈ 3.51 µM) and the MBC (P. prevotti ATCC 9321; P. prevotti ATCC 9321) was 2.5 µg/mL (≈ 14.6 µM). The MIC (P. prevotti ATCC 9321; P. prevotti ATCC 9321, read-out: MIC) was 1.2 µg/mL (≈ 7.01 µM), the MBC (B. Fragilis NCTC 9344) was 1.2 µg/mL (≈ 7.01 µM) and the MIC (B. Fragilis NCTC 9344) was 0.8 µg/mL (≈ 4.67 µM). The MBC (B. Fragilis WS-1) was 1.2 µg/mL (≈ 7.01 µM), the MIC (B. Fragilis WS-1) was 0.8 µg/mL (≈ 4.67 µM) and the MIC [2, 7] was 0.3 µg/mL (≈ 1.75 µM). It also gave an MBC ([2]; Peptostrepto anaerobicus ATCC 27337, read-out: MBC) of 0.3 µg/mL (≈ 1.75 µM), an MBC (P. acnes NCTC 7337) of 10 µg/mL (≈ 58.4 µM) and an MIC (P. acnes NCTC 7337) of 10 µg/mL (≈ 58.4 µM). It also gave an MBC [3] of 1.2 µg/mL (≈ 7.01 µM), an MIC [3] of 0.08 µg/mL (≈ 0.467 µM) and an MBC (B. Fragilis NCTC 9343; Bacteroides fragilis, NCTC9343, 48 h) of 1.2 µg/mL (≈ 7.01 µM). The MIC (B. Fragilis NCTC 9343; Bacteroides fragilis, NCTC9343, 48 h, strain B) was 1.5 µg/mL (≈ 8.76 µM), the MIC (B. Fragilis NCTC 9343; strain B) was 0.8 µg/mL (≈ 4.67 µM) and the MBC (Campl. fetus ATCC 29428) was 10 µg/mL (≈ 58.4 µM). For the same molecule, the MIC (Campl. fetus ATCC 29428) was 10 µg/mL (≈ 58.4 µM), the MBC [4] was 10 µg/mL (≈ 58.4 µM) and the MIC [4] was 10 µg/mL (≈ 58.4 µM). For the same molecule, the MIC (Trichomonas vaginalis; Diamonds Medium, lowest concentration at which no mobile organisms are viable microscopically, read-out: MIC) was 0.6 µg/mL (≈ 3.51 µM), the MBC (B. Fragilis NCTC 10581; [8]) was 1.2 µg/mL (≈ 7.01 µM) and the MIC (B. Fragilis NCTC 10581; [8]) was 0.8 µg/mL (≈ 4.67 µM). For the same molecule, the MIC (B. Fragilis NCTC 10581; Bacteroides fragilis, NCTC10581, 48 h, strain A, 48 hours, 37° C., anaerobic chamber, lowest concentration with no detectable growth, read-out: MIC) was 0.6 µg/mL (≈ 3.51 µM), the MIC (B. Fragilis NCTC 10581; strain A, 48 hours, 37° C., anaerobic chamber, lowest concentration with no detectable growth) was 1.2 µg/mL (≈ 7.01 µM) and the MBC (B. Fragilis ATCC 11295) was 10 µg/mL (≈ 58.4 µM). For the same molecule, the MBC [5] was 10 µg/mL (≈ 58.4 µM), the MIC [5] was 10 µg/mL (≈ 58.4 µM) and the MBC [6] was 10 µg/mL (≈ 58.4 µM). The MIC [6] was 10 µg/mL (≈ 58.4 µM).
